The values that follow come from article PMC4366722 (Iranian Journal of Basic Medical Sciences, 2015).

One data set deals with mushroom tyrosinase. Kind of data set: Diphenolase. The data set is classed as biochemical. The note with it: diphenolase activity.
Data set [1] deals with Melanoma cell lines (NCBI Code: C136; human skin). Kind of data set: Cytotoxicity assay. The data set is classed as cell-based. The conditions noted are these: melanoma cells, 24 hr, MTT.

Molecules are shown by their SMILES. “Also recorded” adds a separate entry of the source.

Turning to `Nc1ccccc1C(=O)O` [2-amino benzoic acid], in the data set with mushroom tyrosinase, the “Inhibition (reversibility)” value is “reversibly” and the Inhibition type result was “noncompetitive”. Moreover, the “effect on melanoma cell viability / cytotoxicity (in words)” value in data set [1] was “no significant change”.

For the compound `Nc1ccc(C(=O)O)cc1` [4-amino benzoic acid], in the data set on mushroom tyrosinase, the “Inhibition (reversibility)” value is reported as “reversibly” and the Inhibition type entry is on record as “noncompetitive”. For the same compound, in data set [1], the “effect on melanoma cell viability / cytotoxicity (in words)” value is listed as “no significant change”.

`O=C(O)c1cccnc1` [Nicotinic acid, nicotinic acid]: in the data set with mushroom tyrosinase, the “Inhibition (reversibility)” value was “reversibly” and the Inhibition type result is recorded as “competitive”. Also, the “effect on melanoma cell viability / cytotoxicity (in words)” value in data set [1] is reported as “declined remarkably; also recorded: cytotoxic effects”.

For the compound `O=C(O)c1ccccn1` [Picolinic acid, picolinic acid], in the data set on mushroom tyrosinase, the “Inhibition (reversibility)” value was “reversibly” and the Inhibition type entry is recorded as “competitive”. Also, the “effect on melanoma cell viability / cytotoxicity (in words)” value in data set [1] is recorded as “declined remarkably; also recorded: cytotoxic effects”.
